The source made the active and inactive calls. No stated cut-off is given here; in the data, actives have a measured IC50 and inactives only a lower limit.
target: Envelope glycoprotein gp160 (Human immunodeficiency virus 1, UniProt Q6QLK5); assay: cell-free HIV fusion peptide-binding blockers – biochemical, uHTS, fluorescence dequenching, […] (AID 1986)
Sequence (Q6QLK5 whole entry, the tested form may be a part): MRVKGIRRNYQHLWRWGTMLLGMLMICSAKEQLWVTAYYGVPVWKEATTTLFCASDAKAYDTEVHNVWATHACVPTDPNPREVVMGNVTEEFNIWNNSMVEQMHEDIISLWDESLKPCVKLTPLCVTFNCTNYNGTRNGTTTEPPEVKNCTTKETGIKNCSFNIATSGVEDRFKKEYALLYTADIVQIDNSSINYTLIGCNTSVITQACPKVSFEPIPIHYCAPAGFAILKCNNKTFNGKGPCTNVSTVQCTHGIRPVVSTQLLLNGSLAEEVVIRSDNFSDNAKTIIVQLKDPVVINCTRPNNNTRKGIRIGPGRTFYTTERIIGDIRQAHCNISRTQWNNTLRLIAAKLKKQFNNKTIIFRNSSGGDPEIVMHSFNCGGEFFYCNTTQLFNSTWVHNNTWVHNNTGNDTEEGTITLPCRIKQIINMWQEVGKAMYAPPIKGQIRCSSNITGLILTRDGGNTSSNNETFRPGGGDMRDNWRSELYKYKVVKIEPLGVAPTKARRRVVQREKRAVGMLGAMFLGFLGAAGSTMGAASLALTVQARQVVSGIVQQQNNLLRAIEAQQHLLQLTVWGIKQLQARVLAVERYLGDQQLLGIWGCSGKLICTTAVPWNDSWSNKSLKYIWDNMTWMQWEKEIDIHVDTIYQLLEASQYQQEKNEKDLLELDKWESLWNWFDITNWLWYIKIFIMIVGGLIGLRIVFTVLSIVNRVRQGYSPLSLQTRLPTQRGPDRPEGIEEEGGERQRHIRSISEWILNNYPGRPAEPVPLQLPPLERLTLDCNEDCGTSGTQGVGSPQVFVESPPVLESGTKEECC

SMILES	IC50
CC1=CN2C(=N)/C(=C/c3cc(Cl)c(O)c(Cl)c3)C(=O)N=C2S1	26.2 µM (active)
O=C(NN1C(=O)/C(=C\c2ccc(O)c([N+](=O)[O-])c2)SC1=S)c1ccccc1Cl	24.9 µM (active)
COc1cc(/C=C2/C(=O)NN(c3ccc(Cl)cc3)C2=O)cc(Br)c1O	15.5 µM (active)
